Earlier results on 1 compound are cited in publication PMC8279981, “A first-in-human, phase 1 study of the NEDD8 activating enzyme E1 inhibitor TAS4464 in patients with advanced solid tumors” (Investigational New Drugs, 2021).

Read-outs that look alike come from different tables or passages of the source.

One data set concerns rats. Set-up: method as in PMID 27551465, PMID 22927439. The settings on record: cited from earlier work.
A further data set relates to patients. Set-up: method as in PMID 26561559, PMID 25733005, PMID 27056178, PMID 26423795. The settings on record: clinical trials; cited from earlier work.
For data set [1], the system named is bleomycin-induced idiopathic pulmonary fibrosis models. The arrangement: method as in PMID 28469786. The note with it: cited from earlier work.
The subject of data set [2] is cells derived from macrophages. Set-up: method as in PMID 22927439. The settings on record: cited from earlier work.

On to `NS(=O)(=O)OC[C@@H]1C[C@@H](n2ccc3c(N[C@H]4CCc5ccccc54)ncnc32)C[C@@H]1O` [MLN4924], for which the “AST, ALT, sorbitol dehydrogenase” value was “Increases in laboratory values” with rats (combination of TNF-α and MLN4924); “no increases in AST, ALT, or sorbitol dehydrogenase” with rats (rats, MLN4924 administration alone). In addition, in the data set with patients, the “abnormal liver function tests (ALT and AST increased)” value is “one of the major AEs”. The “efficacy in pulmonary fibrosis models” value in data set [1] is on record as “efficacy in bleomycin-induced idiopathic pulmonary fibrosis models has been shown”. Also, in data set [2], the “production of TNF-α” value is recorded as “suppress the production of TNF-α”.
